Assays:
[1] = tested on: α-synuclein pre-formed fibrils (PFFs) toxicity in SH-SY5Y cells; experiment: Cell death assay: cytoprotection against α-synuclein pre-formed fibrils (LDH); assay type: cell-based, human; settings: 0.25-1 μM pretreatment 24 h, 50 μg/mL PFFs 48 h
Protocol: Cell death assay. The cytoprotective effect of Synucleozid was tested against α-synuclein PFFs. Human α-synuclein was expressed^78 and fibrillization induced as previously described^79. SH-SY5Y cells were pretreated with Synucleozid (0.25 μM to 1 μM) for 24 h and challenged with 50 μg/mL of α-synuclein PFFs for an additional 48 h in the presence of Synucleozid. Cell death was measured using LDH (Lactate Dehydrogenase) Cytotoxicity Detection Kit (Takara) according to the manufacturer's instructions and plotted either as optical density value or as percentage changes in comparison to respective controls. Monomeric α-synuclein (50 μg/mL) challenge was used as negative control for PFF cytotoxicity. Additional details are provided in the Supporting Information.
Cell death assay. The cytoprotective effect of Synucleozid was tested against α-synuclein preformed fibrils. […] To induce fibrillization of monomertic α-synuclein, the solution was subjected to shaking at 1000 rpm at 37° C. for 7 days on a thermomixer C (Eppendorf), and formation of fibrillar α-synuclein was monitored and confirmed by thioflavin-T assay (8). […] Cell death was measured using LDH (Lactate Dehydrogenase) Cytotoxicity Detection Kit (Takara) according to the manufacturer's instructions and plotted either as optical density value or as percentage changes in comparison to respective controls. […]

[2] = tested on: 2-AP labeled SNCA IRE RNA; experiment: 2-AP emission assay; assay type: binding, human; settings: decrease of 2-AP emission
Protocol: 2-AP emission assay. One μM 2-AP labeled SNCA IRE RNA was folded by heating to 65° C. for 5 min in 1× Assay Buffer and slowly cooling to room temperature. Bovine serum albumin (BSA) was then added to the RNA solution to 40 μg/mL. After adding Synucleozid to RNA solution at a final concentration […] of 100 μM, serial dilutions were prepared using 1× Assay Buffer including BSA supplemented with folded one μM 2-AP labeled SNCA IRE RNA. The solutions were incubated at room temperature for 30 min in dark and transferred into wells of black 384-well half area plates (Greiner). Fluorescence intensity was measured at room temperature with Tecan plate reader (Gain: 100, Integration time: 40 μs). Fluorescence excitation and emission wavelengths were set at 310 and 380 nm. The change of 2-AP fluorescence intensity as a function of Synucleozid concentration was fit to Eq. (1):
(§1) EC50 was calculated from Eq. (1).

[3] = target: RNA-6 (A bulge mutated to U or G bulge); experiment: Competitive binding assay (2-AP), RNA-6
Protocol: as §1

[4] = target: RNA-7 (A bulge mutated to U or G bulge); experiment: Competitive binding assay (2-AP), RNA-7
Protocol: as §1

[5] = tested on: RNA-8 to 11 (mutated closing base pairs); experiment: Competitive binding assay (2-AP), RNA-8 to 11
Protocol: as §1

[6] = tested on: SNCA IRE dually labeled with Cy3 and Cy5; experiment: FRET-based ASO-Bind-Map; assay type: binding, human; settings: 1 μM, ASO 500 nM
Protocol: FRET-based ASO-Bind-Map. The SNCA IRE dually labeled with Cy3 and Cy5 dyes (100 nM) was folded by heating at 65° C. for 5 min in 1× Assay Buffer and slowly cooling to room temperature. BSA was added to the RNA solutions to a final concentration of 40 μg/mL followed by addition of compound. The mixtures were incubated at room temperature for 30 min. Fluorescence spectra were then acquired as a function of time (in kinetics mode) for 20 min using a Cary Eclips fluorescence spectrophotometer, with excitation and emission wavelengths of 532/10 nm and 668/5 nm, respectively. The ASO of interest was then added to a final concentration of 500 nM, and fluorescence spectra were acquired as described above.

[7] = target: T1, IRP-1:SNCA IRE RNA complex (Homo sapiens, UniProt P21399); experiment: In vitro displacement of IRPs by gel mobility shift assay, IRP-1; assay type: binding; settings: 0.2, 1, 5 μM; pre-incubation 1-60 min
T1 construct: purchased Abnova
Protocol: In vitro displacement of IRPs by gel mobility shift assays. SNCA IRE hairpin RNA was 5′-end labeled with [γ-^32P]ATP as previously described^5. Approximately, 2 pmoles of ^32P labeled RNA per 20 μL reaction was folded in 1× Assay Buffer by heating at 65° C. for 5 min and slowly cooling to room temperature. As indicated, vehicle, Synucleozid (0.2, 1, 5 μM) or unlabeled IRE RNA (1 μM, folded as described above and used as a positive control) was added to the samples, and the samples were incubated at room temperature for varying amounts of time (1-60 min as indicated). Then, 0.5 μg IRP-1 or IRP-2 (Abnova) was added, and the samples were incubated at room temperature for an additional 30 min. An equal volume of 2× Native Gel Loading Buffer (2×TBE, 50% Glycerol, 0.025% (w/v) Bromophenol blue and Xylene cyanol FF) was added to each sample. Note, Native Gel Loading Buffer added to Synucleozid-treated samples was supplemented with the same concentration of Synucleozid as in the sample to maintain a constant concentration. IRP:IRE complexes and free IRE were separated on a native 15% polyacrylamide prepared 1×TBE supplemented with the same concentration of Synucleozid as in compound-treated samples, and imaged using a Bio-Rad PMI phosphorimager. Images were quantified with BioRad's Quantity One software.

[8] = tested on: RNA-12 (fully base paired RNA); experiment: Competitive binding assay (2-AP), RNA-12
Protocol: (§2) I and I0 are the observed fluorescence intensity in the presence and absence of 2-AP RNA. Δε is the difference between the fluorescence intensity in the absence and presence of infinite 2-AP RNA. […] EC50 was calculated from Eq. (1). […] The change of fluorescence intensity was fit to Eq. (2):
(§3) θ is the percentage of 2-AP RNA bound. [RNA] is the concentration of 2-AP RNA. EC50 is the EC50 of Synucleozid determined in the assay above. [Synucleozid] is the concentration of Synucleozid. Cc is the concentration of competitive RNA. Kd is competitive dissociation constant and A is a constant.

[9] = tested on: RNA-2 to 5 (other non-canonically paired regions replaced with base pairs); experiment: Competitive binding assay (2-AP), RNA-2 to 5
Protocol: as §2, §3

T1 sequence (P21399 whole entry, species assumed, one chain of several): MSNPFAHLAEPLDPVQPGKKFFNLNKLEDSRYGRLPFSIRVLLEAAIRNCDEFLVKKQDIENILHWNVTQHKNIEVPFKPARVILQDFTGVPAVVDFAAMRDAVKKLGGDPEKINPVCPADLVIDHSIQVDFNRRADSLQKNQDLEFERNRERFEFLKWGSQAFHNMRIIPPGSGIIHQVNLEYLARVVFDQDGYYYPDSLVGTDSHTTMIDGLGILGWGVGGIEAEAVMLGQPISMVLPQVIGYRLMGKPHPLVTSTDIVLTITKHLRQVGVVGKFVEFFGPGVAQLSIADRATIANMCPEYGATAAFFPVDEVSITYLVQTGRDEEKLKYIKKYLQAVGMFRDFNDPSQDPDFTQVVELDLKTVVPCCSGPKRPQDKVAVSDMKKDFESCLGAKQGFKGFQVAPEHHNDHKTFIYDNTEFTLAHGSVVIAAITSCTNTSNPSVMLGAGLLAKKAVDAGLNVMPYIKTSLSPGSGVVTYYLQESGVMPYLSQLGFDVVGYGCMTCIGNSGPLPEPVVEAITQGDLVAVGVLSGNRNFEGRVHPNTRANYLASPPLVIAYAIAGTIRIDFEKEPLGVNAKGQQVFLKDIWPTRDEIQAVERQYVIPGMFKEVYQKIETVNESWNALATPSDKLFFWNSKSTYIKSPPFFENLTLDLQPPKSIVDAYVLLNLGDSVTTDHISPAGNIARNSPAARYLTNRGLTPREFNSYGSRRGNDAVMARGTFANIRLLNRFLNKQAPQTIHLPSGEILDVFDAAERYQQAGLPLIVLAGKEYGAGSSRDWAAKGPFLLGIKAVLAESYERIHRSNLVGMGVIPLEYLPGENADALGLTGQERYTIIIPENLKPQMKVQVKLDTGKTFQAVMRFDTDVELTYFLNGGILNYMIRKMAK

SMILES: N=C(N)c1ccc(Nc2ccc(-c3cc4ccc(C(=N)N)cc4[nH]3)cc2)cc1 [Synucleozid A]
- cytoprotection against toxicity of α-synuclein PFFs (LDH release) [1]: mitigated the toxicity induced by PFFs in a concentration dependent manner
- cytoprotection against toxicity of α-synuclein PFFs (LDH release) ([1]; listed as Synucleozid): abrogates cytotoxicity
- EC50 [2]: 2.72 ± 0.37 µM
- EC50 ([2]; listed as Synucleozid): 2.7 ± 0.4 µM
- Kd [3]: ~20 µM
- reduction of avidity compared to the native IRE [3]: 10 fold
- Kd [4]: ~20 µM
- reduction of avidity compared to the native IRE [4]: 10 fold
- effect of closing base pair mutation on binding affinity [5]: reduced binding affinity
- reduction of ASO-induced unfolding (FRET) [6]: only able to reduce the extent of unfolding induced by ASO(1-10) and ASO(40-50)
- effect on binding of IRP-1 to SNCA IRE RNA [7]: Neither Synucleozid concentration (0.2, 1, 5 μM) nor pre-incubation time (1, 5, 15, 60 min) has any significant effect
- competitor RNA concentration needed for recovery of 2-AP emission [8]: > 100 µM
- effect of mutation on Synucleozid binding [9]: no effect
